We go through two compounds from patent publication US20220241276A1, “COMPOSITIONS AND METHODS FOR TREATING CANCER” (The Regents of the University of Michigan, priority 2019, published 2022).

SMILES strings stand for the structures. Values joined by “and” are separate entries in the source; they are usually repeats but may differ in a detail not shown here. Equal entries are not always repeated. Where two headings read alike, the source gives them in different places. Bounds are passed on as bounds.

The test system of data set [1] is advanced adrenocortical carcinoma (ACC). The settings on record: cited from earlier work.
The test system is the same in data set [2]. The data set can be described thus: Phase 3 study (GALACCTIC; Fassnacht et al. Lancet Oncology 2015) of OSI-906/linsitinib vs placebo in patients with advanced adrenocortical carcinoma. The settings on record: prior trial, 6/90 patients, unselected. The class given is in vivo, human. An excerpt: In some embodiments, the agent is an IGF1R inhibitor.
This includes 4 patients who achieved a partial response (PR) by RECIST criteria (Eisenhauer et al. Eur J. Cancer. 2009), and 2 patients who achieved long-term stable disease (SD; also by RECIST criteria, Eisenhauer et al. Eur J. Cancer. 2009).

The subject of data set [3] is adrenocortical carcinoma (ACC). The following applies: cited from earlier work.
Setting [4] is: individual patients G-L, non-responders to OSI-906, per patient.

For the compound `C[C@]1(O)C[C@@H](c2nc(-c3ccc4ccc(-c5ccccc5)nc4c3)c3c(N)nccn32)C1` [OSI-906, linsitinib], in data set [1] (OSI-906-treated arm, unselected advanced ACC), the “Patients with favorable response / treated patients” value is on record as 6/90. Besides, the “Kaplan-Meier progression-free survival curves, linsitinib-treated vs placebo-treated” value in data set [1] (all patients of the trial) was “no statistical difference”. Further, the “Progression-free survival (days)” value in data set [1] (individual patients A-F, responders to OSI-906, per patient, '+' given after value) is 169+ days and 504+ days and 525+ days and 205+ days and 433+ days and 440+ days. Also, the “Best change from baseline in sum of target lesions (%)” value in data set [1] (individual patients A-F, responders to OSI-906, per patient) is −50% and −45.625% and −45% and −5.882% and 0% and −78.46%. In addition, in data set [1] (setting [4]), the “Best change from baseline in sum of target lesions (%)” value was 32.26% and 35.29% and 38.28% and 48.35% and 23.51%; the “Progression-free survival” value is 38 days and 41 days and 42 days (3×) and 48 days. Moreover, in data set [1] (of 90 OSI-906-treated patients, RECIST), the “Number of patients who achieved a partial response (PR)” value is 4 patients. Moreover, in data set [1] (patients with ACC), the Drug toxicities entry is “limited and manageable”; the “Primary endpoint of the Phase 3 study” value was “failed to reach the primary endpoint”. The “Progression-free survival of long-term durable responders” value in data set [1] (small subset of linsitinib-treated patients, not seen with placebo) is reported as more than 150 days. In data set [2], this compound registered a Response rate of 6.7%.

For `Clc1ccc(C(c2ccccc2Cl)C(Cl)Cl)cc1` (centres unmarked) [mitotane], the “Patients who recur during adjuvant therapy after surgery or progress during therapy for non-resectable disease” value in data set [3] (mitotane therapy) was “up to 90%”. Also, in data set [3] (recent studies), the Efficacy entry is “only marginally effective” and the Toxicity entry was “highly toxic”.
